*1 amine or outer side, *2 acyl side, *3 side chain or, on linkers, in order; H or OH if unused. Where a SMILES comes first, the peptide text is derived from it. [ ]: non-standard residue; d: D form. X1 = O=C1c2ccccc2[C@@](O)(CN(Cc2ccccc2)[*:1])N1CC(=O)[*:2]; NMeL = CN[C@@H](CC(C)C)C(=O)O
Test system: MDA-MB-231 cells
Assay type: cell-based, human
Conditions: 48 h
Text: The antitumor activity of the prepared cyclic peptides against human hepatocellular carcinoma cells (HepG-2), human cervical cancer cell lines (HeLa) and human breast cancer cells (MDA-MB-231) was examined by MMT assay, and the mouse fibroblast L929 cells were used as the model cells to evaluate the toxicity of cyclopeptides to normal cell lines. Due to the absence of an authentic standard, taxol was chosen as a control because it is a widely used chemotherapeutic drug for the treatment of various cancers, including liver cancer.
Samples were dissolved in DMSO and diluted into different concentrations ([…], 18.75, 25, 37.5, 50, 75, 100 and 250 μM) and stored at 4 °C. Cells in the logarithmic growth phase were digested with trypsin and then seeded in 96-well plates at a density of 2 × 10^4 cells/well in 100 μL of culture medium. The cells were treated with different concentrations of the tested compound, and a blank control group without the drug was also set up. Six wells were repeated for each dose. After 48 h of co-incubation, MTT solution (100 μL, 0.5 mg/mL) was added, followed by incubation for another 4 h. After discarding the supernatant, 100 μL of DMSO was added per well, and the absorbance (OD) values were measured at 490 nm using an enzyme marker. Cell viability was calculated by the formula: Cell viability (%) = As/Ab × 100% (where As is the absorbance value of the experimental group and Ab is the absorbance value of the blank group). The obtained data were processed using SPSS19 software to obtain IC50 values.

CC(C)C[C@@H]1NC(=O)CN2C(=O)c3ccccc3[C@@]2(O)CN(Cc2ccccc2)C(=O)[C@H](CC(C)C)NC(=O)[C@H](CC(C)C)N(C)C(=O)[C@H](CC(C)C)NC(=O)[C@H](CC(C)C)NC1=O [Compound 8, 3-Hydroxy-isoindolinone-cyclo-Gly-Leu-N-Me-Leu-Leu-Leu-Leu] (cyclo(LL[NMeL]L[X1]L)) was tested, and the IC50 was 41.7 ± 3.2 µM.
